Experimental data reported in patent publication US20250171460A1, “INDUCERS OF KLF2 AND METHODS OF USE THEREOF” (Riparian Pharmaceuticals, Inc., priority 2022, published 2025).
pEC50: −log10 of the molar value. Read-outs that look alike come from different tables or passages of the source.

System: primary human endothelial cells expressing luciferase under the control of the KLF2 promoter
Experiment: KLF2 Induction Cell Based Bioassay (luciferase reporter)
From the text: In endothelial cell culture media, a stock of the highest working concentration was made at no more than 1% DMSO vehicle. The working stock was then serially diluted 1:2 to make an 11-point concentration response curve. Included in the 96-well plate were 2 reference compounds with known potencies. A DMSO column was included in the 96-well plate at the highest percent vehicle of the working stocks. The 96-well cell culture plate of primary human endothelial cells expressing luciferase under the control of the KLF2 promoter was dosed with 200 μL per well of the dilution series as well as the DMSO control column. The assay plate was incubated at 37° C. for 24 hours. The supernatant was collected at 24 hours.
20 μL of the supernatant was then placed in a 384-well plate with optical duplicates. The corners of the plate received 20 μL of the Gaussia Luciferase Enzyme positive control, as well as 20 μL of the 50 μM Coelenterizine substrate. The plate read is then calibrated using the control, and read using a Molecular Devices SpectraMax iD5, providing luminescence in relative light units (RLU). The plate reader injected 20 μL of the 50 μM Coelenterizine substrate immediately before taking the RLU measurement for each well.
The sample signals were then normalized to the average signal of the DMSO column, as well as to the maximum signal of one of the reference compounds, as shown in the equations below: […]
The EC50 of each compound is then defined as when the concentration response curve passes 0.5.

[1] = Homo sapiens, Endothelial cell, 24 h, KLF2 promoter luciferase, 24 hours, 11-point concentration response, read-out: Activity Range (EC50)
[2] = Homo sapiens, Endothelial cell, Bioactivity of stereoisomers: R isomer, read-out: Bioactivity Bucket, R

Row | SMILES | pEC50 [1] | other results
1 | COCCN1C(=O)c2oc3cc(C(=O)NC4(C)COC4)ccc3c2OCC1(C)C(=O)NCc1ncccc1OC (stereo not shown) [Example 66] | 5.30 to 6.30 | –
2 | COc1cccc(C#N)c1CNC(=O)C1(C)COc2c(oc3cc(C(=O)NC4CCC4)ccc23)C(=O)N1CC1CC1 (stereo not shown) [Example 67] | 6.30 to 7.29 | –
3 | COc1cccc(F)c1CNC(=O)C1(C)COc2c(oc3cc(C(=O)NC4(C)COC4)ccc23)C(=O)N1[C@H]1C[C@@H](OC)C1 (stereo partly shown) [Example 68] | 6.30 to 7.29 | –
4 | COc1cc(F)ccc1CNC(=O)C1(C)COc2c(oc3cc(C(=O)NC4(C)COC4)ccc23)C(=O)N1[C@H]1C[C@@H](OC)C1 (stereo partly shown) [Example 69] | 6.30 to 7.29 | –
5 | COc1ccc(F)cc1CNC(=O)C1(C)COc2c(oc3cc(C(=O)NC4(C)COC4)ccc23)C(=O)N1[C@H]1C[C@@H](OC)C1 (stereo partly shown) [Example 70] | 6.30 to 7.29 | –
6 | COc1cc(F)ccc1CNC(=O)C1(C)COc2c(oc3cc(C(=O)NC4CCC4)ccc23)C(=O)N1[C@H]1C[C@@H](OC)C1 (stereo partly shown) [Example 71] | 6.30 to 7.29 | –
7 | COc1cc(F)ccc1CNC(=O)C1(C)COc2c(oc3cc(C(=O)NC4CCC4)ccc23)C(=O)N1CC1CC1 (stereo not shown) [Example 72] | 6.30 to 7.29 | –
8 | COc1ccc(F)cc1CNC(=O)C1(C)COc2c(oc3cc(C(=O)NC4CCC4)ccc23)C(=O)N1[C@H]1C[C@@H](OC)C1 (stereo partly shown) [Example 73] | 6.30 to 7.29 | –
9 | COCCN1C(=O)c2oc3cc(C(=O)NC4(C)COC4)ccc3c2OCC1(C)C(=O)NCc1cc(F)ccc1OC (stereo not shown) [Example 74] | 5.30 to 6.30 | –
10 | COCCN1C(=O)c2oc3cc(C(=O)NC4CCC4)ccc3c2OCC1(C)C(=O)NCc1cc(F)ccc1OC (stereo not shown) [Example 75] | 6.30 to 7.29 | –
11 | COCCN1C(=O)c2oc3cc(C(=O)NC4(C)COC4)ccc3c2OCC1(C)C(=O)NCc1ccc(F)cc1OC (stereo not shown) [Example 76] | 6.30 to 7.29 | –
12 | COCCN1C(=O)c2oc3cc(C(=O)NC4CCC4)ccc3c2OCC1(C)C(=O)NCc1ccc(F)cc1OC (stereo not shown) [Example 77] | 6.30 to 7.29 | –
13 | COc1cccnc1CNC(=O)C1(C)COc2c(oc3cc(C(=O)NC4(C)COC4)ccc23)C(=O)N1[C@H]1C[C@@H](OC)C1 (stereo partly shown) [Example 78] | 6.30 to 7.29 | –
14 | COCCN1C(=O)c2oc3cc(C(=O)NC4(C)COC4)ccc3c2OC[C@]1(C)C(=O)NCc1c(F)cccc1OC [Example 79] | 6.30 to 7.29 | pEC50 [2]: 6.30 to 7.29
15 | COc1ccc(F)cc1CNC(=O)C1(C)COc2c(oc3cc(C(=O)NC4CCC4)ccc23)C(=O)N1[C@H]1C[C@H](OC)C1 (stereo partly shown) [Example 80] | 5.30 to 6.30 | –
16 | COc1ccc(F)c(F)c1CNC(=O)C1(C)COc2c(oc3cc(C(=O)NC4CCC4)ccc23)C(=O)N1[C@H]1C[C@@H](OC)C1 (stereo partly shown) [Example 82] | 6.30 to 7.29 | –
17 | COc1ccc(F)c(F)c1CNC(=O)C1(C)COc2c(oc3cc(C(=O)NC4(C)COC4)ccc23)C(=O)N1[C@H]1C[C@@H](OC)C1 (stereo partly shown) [Example 83] | 6.30 to 7.29 | –
18 | COc1cccc(F)c1CNC(=O)C1(C)COc2c(oc3ccc(Cl)cc23)C(=O)N1Cc1ncnn1C (stereo not shown) [Example 108, 9-chloro-N-(2-fluoro-6-methoxybenzyl)-3-methyl-4-((1-methyl-11H-1,2,4-triazol-5-yl)methyl)-5-oxo-2,3,4,5-tetrahydrobenzofuro[2,3-f][1,4]oxazepine-3-carboxamide] | – | pEC50 (KLF2 promoter luciferase, 24 hours, 11-point concentration response, read-out: Activity Range (EC50)): 6.30 to 7.29

More lines, main results first:

Row | pEC50 [1] | SMILES | other results
19 | ≥ 7.30 | COc1cccc(Cl)c1CNC(=O)C1(C)COc2c(oc3cc(C(=O)NC4CCC4)ccc23)C(=O)N1[C@H]1C[C@@H](OC)C1 (stereo partly shown) [Example 84] | –
20 | ≥ 7.30 | COc1cccc(Cl)c1CNC(=O)C1(C)COc2c(oc3cc(C(=O)NC4(C)COC4)ccc23)C(=O)N1[C@H]1C[C@@H](OC)C1 (stereo partly shown) [Example 85] | –
21 | ≥ 7.30 | COc1cccc(Cl)c1CNC(=O)C1(C)COc2c(oc3cc(C(=O)NC4(C)COC4)ccc23)C(=O)N1CC1CC1 (stereo not shown) [Example 86] | –
22 | ≥ 7.30 | COc1cccc(Cl)c1CNC(=O)C1(C)COc2c(oc3cc(C(=O)NC4CCC4)ccc23)C(=O)N1CC1CC1 (stereo not shown) [Example 87] | –
23 | ≥ 7.30 | COCCN1C(=O)c2oc3cc(C(=O)NC4CCC4)ccc3c2OCC1(C)C(=O)NCc1c(Cl)cccc1OC (stereo not shown) [Example 88] | –
24 | ≥ 7.30 | COc1cccc(F)c1CNC(=O)C1(C)COc2c(oc3cc(C(=O)NC4(C)COC4)ccc23)C(=O)N1CC1CC1 (stereo not shown) [Example 89] | –
25 | ≥ 7.30 | COCCN1C(=O)c2oc3cc(C(=O)NC4CCC4)ccc3c2OCC1(C)C(=O)NCc1c(C#N)cccc1OC (stereo not shown) [Example 90] | –
26 | ≥ 7.30 | COc1cccc(F)c1CNC(=O)C1(C)COc2c(oc3cc(C(=O)NC4CCC4)ccc23)C(=O)N1[C@H]1C[C@@H](OC)C1 (stereo partly shown) [Example 91] | –
27 | ≥ 7.30 | COc1ccc(F)cc1CNC(=O)C1(C)COc2c(oc3cc(C(=O)NC4CCC4)ccc23)C(=O)N1CC1CC1 (stereo not shown) [Example 92] | –
28 | ≥ 7.30 | COc1cccc(F)c1CNC(=O)C1(C)COc2c(oc3cc(C(=O)NC4CCC4)ccc23)C(=O)N1CC1CC1 (stereo not shown) [Example 93] | –
29 | ≥ 7.30 | COCCN1C(=O)c2oc3cc(C(=O)NC4CCC4)ccc3c2OC[C@]1(C)C(=O)NCc1c(F)cccc1OC [Example 94] | –
30 | 5.30 to 6.30 | COCCN1C(=O)c2oc3cc(C)ccc3c2OCC1(C)C(=O)NCc1ccccc1OC (stereo not shown) [Example 95, N-(2-methoxybenzyl)-4-(2-methoxyethyl)-3,8-dimethyl-5-oxo-2,3,4,5-tetrahydrobenzofuro[2,3-f][1,4]oxazepine-3-carboxamide] | –
31 | 5.30 to 6.30 | C=C(C)c1ccc2c3c(oc2c1)C(=O)N(CCOC)C(C)(C(=O)NCc1ccccc1OC)CO3 (stereo not shown) [Example 96] | –
32 | 5.30 to 6.30 | COCCN1C(=O)c2oc3cc(C4CC4)ccc3c2OCC1(C)C(=O)NCc1ccccc1OC (stereo not shown) [Example 97] | –
33 | 5.30 to 6.30 | COCCN1C(=O)c2oc3cc(-c4cscn4)ccc3c2OCC1(C)C(=O)NCc1ccccc1OC (stereo not shown) [Example 99] | –
34 | 6.30 to 7.29 | COCCN1C(=O)c2oc3cc(-c4cncs4)ccc3c2OCC1(C)C(=O)NCc1ccccc1OC (stereo not shown) [Example 100] | –
35 | 6.30 to 7.29 | COCCN1C(=O)c2oc3cc(-c4nccs4)ccc3c2OCC1(C)C(=O)NCc1ccccc1OC (stereo not shown) [Example 101] | –
36 | 6.30 to 7.29 | [2H]C([2H])([2H])N(C(=O)CN1C(=O)c2oc3ccc(Cl)cc3c2OC[C@]1(C)C(=O)NCc1c(F)cccc1OC)C([2H])([2H])[2H] [Example 102, (R)-4-(2-(bis(methyl-d3)amino)-2-oxoethyl)-9-chloro-N-(2-fluoro-6-methoxybenzyl)-3-methyl-5-oxo-2,3,4,5-tetrahydrobenzofuro[2,3-f][1,4]oxazepine-3-carboxamide] | pEC50 [2]: 6.30 to 7.29
37 | 6.30 to 7.29 | [2H]C([2H])([2H])N(C(=O)CN1C(=O)c2oc3ccc(Cl)cc3c2OC[C@]1(C)C(=O)NCc1ncccc1OC)C([2H])([2H])[2H] [Example 103] | –
38 | 6.30 to 7.29 | COc1cccnc1CNC(=O)[C@@]1(C)COc2c(oc3ccc(Cl)cc23)C(=O)N1CC(=O)N1CC(O)C1 [Example 104] | –
39 | 6.30 to 7.29 | COc1cccc(F)c1CNC(=O)[C@@]1(C)COc2c(oc3ccc(Cl)cc23)C(=O)N1CC(=O)N1CC(O)C1 [Example 105] | –
40 | 6.30 to 7.29 | [2H]C([2H])([2H])N(C(=O)CN1C(=O)c2oc3ccc(Cl)cc3c2OCC1(C)C(=O)NCc1ncccc1OCC)C([2H])([2H])[2H] (stereo not shown) [Example 109, 4-(2-(bis(methyl-d3)amino)-2-oxoethyl)-9-chloro-N-((3-ethoxypyridin-2-yl)methyl)-3-methyl-5-oxo-2,3,4,5-tetrahydrobenzofuro[2,3-f][1,4]oxazepine-3-carboxamide] | –
41 | 5.30 to 6.30 | [2H]C([2H])([2H])N(C(=O)CN1C(=O)c2oc3ccc(Cl)cc3c2OCC1(C)C(=O)NCc1ncccc1OC(C)C)C([2H])([2H])[2H] (stereo not shown) [Example 110] | –
